Values of other authors as cited in US7011849B2, “Second release phase formulation” (Beecham Pharmaceuticals (Pte) Limited, priority 2000, dated 2006).

Settings: in vivo

- elimination half-life: about 1.3 hours
SMILES: CC1(C)S[C@@H]2[C@H](NC(=O)[C@H](N)c3ccc(O)cc3)C(=O)N2[C@H]1C(=O)O [amoxicillin]
